Experimental data taken from patent US12240859B2, “Turbinmicin compounds, compositions and uses thereof” (Wisconsin Alumni Research Foundation, priority 2019, dated 2025).
In brackets after ≈: the same amount, converted by molar mass. Read-outs that look alike come from different tables or passages of the source.

Legend:
C. auris B11211 = experiment: Neutropenic murine disseminated candidiasis model, C. auris B11211; assay type: in vivo, Candida auris; settings: mice
From the text: (§1) Animals. Six-week-old ICR Swiss specific-pathogen-free female mice weighing 23 to 27 g were used for all studies. Animals were maintained in accordance with the American Association for Accreditation of Laboratory Care criteria. Animal studies were approved by the University of Wisconsin Animal Research Committee.
C. auris B11211 and C. albicans K1 Infection model. A neutropenic, murine, disseminated candidiasis model was used for the treatment studies. […]
C auris B11211 was subcultured on SDA 24 h prior to infection. […] Fungal counts of the inoculum determined by viable counts of C. auris on SDA were 6.25±0.03 log10 CFU ml^−1, respectively. […] Results were expressed as the mean number of CFU per kidney for three mice. […]
(§2) Disseminated infection with C. auris B11211 infection was produced by injection of 0.1 ml of the inoculum via the lateral tail vein 2 h prior to the start of antifungal therapy. […] The results are expressed as the mean and standard deviation of the log10 CFU/kidney from three mice. […]
(§3) Results. A multi-dose experiment with C. auris B11211 infection murine model was evaluated, and four doses (1, 2, 4, and 8 mg/kg) of turbinmicin were administered to mice every six hours over a 24 h period; turbinmicin was administered by intraperitoneal route.

C. glabrata = experiment: In vitro MIC susceptibility testing, broth microdilution; assay type: cell-based, Candida glabrata
Description: (§4) In vitro MIC susceptibility testing. […]. Amphotericin B was used as a positive control and the MICs range were 0.25-1.5 μg/mL. Six untreated media controls were included on each plate. The plates were incubated at 33° C. for 72 h. The MICs were determined as the lowest concentration that inhibited visible growth. The MICs were read at 24, 48, and 72 hours, respectively. […]

C. albicans K1 = experiment: Neutropenic murine disseminated candidiasis model, C. albicans K1; assay type: in vivo, Candida albicans; settings: mice
From the text: as §1
C. auris B11211 and C. albicans K1 Infection model. A neutropenic, murine, disseminated candidiasis model was used for the treatment studies. Mice were rendered neutropenic (neutrophils, <100/mm^3) by injecting them with cyclophosphamide (Mead Johnson Pharmaceuticals, Evansville, IN) subcutaneously 4 days (150 mg/kg) and 1 day (100 mg/kg) before infection, and 2 days after infection (100 mg/kg). Previous studies have shown neutropenia (<100 mm^3) in this model for the 96-h study period.
as §2, §3

C. auris = experiment: In vitro MIC susceptibility testing, broth microdilution; assay type: cell-based, Candida auris; settings: Candidozyma auris
Description: as §4

A. fumigatus = experiment: Time kill experiments; assay type: cell-based, Aspergillus fumigatus; settings: A. fumigatus as printed in b90 (FIG. 6C), 0-48 h
[1] = Solubility of turbinmicin in aqueous solvents; assay type: physicochemical
From the text: In some embodiments, the pharmaceutical composition comprises turbinmicin and a pharmaceutically acceptable carrier comprising aqueous DMSO, e.g., DMSO in water, DMSO in 0.9% saline or DMSO in phosphate buffered saline (e.g., about 0.01 to about 0.1 molar Na/K phosphate buffer, about pH 7.4). In some embodiments the amount of DMSO in aqueous solution varies from at least about 1% by weight to about 80% by weight. […]. As turbinmicin had limited aqueous solubility, various solubilizing conditions (Table 4) were tested.

## C/C=C/C=C/C=C/C(=O)OC1C=CCC2C(=O)c3c(O)c4c5c(c3OC12)OCOC5CC1C(=O)c2cc(C)[nH]c(=O)c2C(=O)C41O (centres unmarked) [Turbinmicin, turbinmicin]
C. auris B11211; multi-dose 1, 2, 4 and 8 mg/kg intraperitoneal every six hours over 24 h, at 24 h, dose-dependent
  CFU/kidney reduction: > 3 log 10 CFU/kidney
C. auris B11211; single intraperitoneal dose 8, 16, 32, 64 mg/kg, 6 h, data not shown
  antifungal effect, single dose: failed to reveal a significant antifungal effect
C. glabrata; Nakaseomyces glabratus
  MIC: 0.5 µg/mL (≈ 0.797 µM)
C. glabrata; strain 513
  MIC: 0.5 µg/mL (≈ 0.797 µM)
C. glabrata; strain 729, Fks2_HS1_S663P
  MIC: 0.5 µg/mL (≈ 0.797 µM)
C. glabrata; strain 5592
  MIC: 0.5 µg/mL (≈ 0.797 µM)
C. glabrata; strain 14378, Fks1_HS1_S629P
  MIC: 0.5 µg/mL (≈ 0.797 µM)
C. albicans K1; multi-dose 1, 2, 4 and 8 mg/kg intraperitoneal over 24 hours
  CFU/kidney reduction: > 1 log 10 CFU/kidney
C. albicans K1; single intraperitoneal dose 16, 32, 48 and 64 mg/kg, 6 h
  in vivo efficacy, single dose: showed in vivo efficacy
C. auris; strain B11104
  MIC: 0.5 µg/mL (≈ 0.797 µM)
C. auris; strain B11203
  MIC: 0.5 µg/mL (≈ 0.797 µM)
C. auris; strain B11211, resistant to amphotericin B, fluconazole, micafungin, read-out: MIC
  MIC: 0.25 µg/mL (≈ 0.398 µM)
C. auris; strain B11219
  MIC: 0.25 µg/mL (≈ 0.398 µM)
C. auris; strain B11220
  MIC: 0.125 µg/mL (≈ 0.199 µM)
C. auris; strain B11221
  MIC: 0.5 µg/mL (≈ 0.797 µM)
C. auris; strain B11785
  MIC: 0.25 µg/mL (≈ 0.398 µM)
C. auris; strain B11799
  MIC: 0.5 µg/mL (≈ 0.797 µM)
C. auris; strain B11801
  MIC: 0.5 µg/mL (≈ 0.797 µM)
C. auris; strain B11804
  MIC: 0.5 µg/mL (≈ 0.797 µM)
A. fumigatus
  time-kill activity: Fungacidal activity was observed
[1]; No. 2, DMSO (1% in PBS)
  Highest Turbmicin conc. Achieved: ≤0.5 mg/mL
[1]; No. 4, DMSO (10% in PBS)
  Highest Turbmicin conc. Achieved: 2 mg/mL
[1]; No. 5, PEG 400 (50% in PBS)
  Highest Turbmicin conc. Achieved: ≤0.5 mg/mL
[1]; No. 6, Kolliphor EL (10% in PBS)
  Highest Turbmicin conc. Achieved: ≤0.5 mg/mL
[1]; No. 7, Tween 80 (2% in PBS)
  Highest Turbmicin conc. Achieved: ≤0.5 mg/mL
[1]; aqueous with cosolvent or surfactant or cyclodextrin, mixtures of DMSO and water, read-out: concentration solubilized
  solubility: > 500 µg/mL
[1]; pH 7.4, aqueous buffer, No. 1, PBS, read-out: Highest Turbmicin conc. Achieved
  solubility: ≤ 500 µg/mL
[1]; pH 7.4, aqueous with cosolvent or surfactant or cyclodextrin, No. 3, DMSO (5% in PBS), read-out: Highest Turbmicin conc. Achieved
  solubility: ≤ 1000 µg/mL
[1]; water, read-out: water solubility
  solubility: < 500 µg/mL
